Laboratory results: patent publication US20210007356A1, “IMIDE DERIVATIVE AND FUNGICIDE CONTAINING SAID DERIVATIVE AS ACTIVE INGREDIENT” (HOKKO CHEMICAL INDUSTRY CO., LTD., priority 2018, published 2021)
Where two headings read alike, the source gives them in different places.

Key:
[1] = system: rice sheath blight fungus (Thanatephorus cucumeris); assay: Test Example 8: control effect against rice sheath blight by box treatment (granule); conditions: 5 g of granule on nursery box, paddy rice; inoculated after 3 weeks; 7 days after inoculation
[2] = system: barley powdery mildew fungus (Erysiphe graminis); assay: Test Example 2: control effect against barley powdery mildew by foliage application; assay type: in vivo; conditions: wettable powder diluted to 100 ppm, 10 mL per pot foliage spray on barley; inoculated day after; 7 days after inoculation
[3] = system: rice blast fungus (Pyricularia grisea); assay type: in vivo; conditions: flowable diluted to 100 ppm, 10 mL per pot foliage spray on paddy rice; inoculated day after; 7 days after inoculation
[4] = system: rice sheath blight fungus (Thanatephorus cucumeris); assay: Test Example 6: control effect against rice sheath blight by box treatment (flowable formulation); conditions: flowable 5,000 ppm, 50 mL irrigation of nursery box, paddy rice; inoculated after 3 weeks; 7 days after inoculation
[5] = system: rice sheath blight fungus (Thanatephorus cucumeris); assay: Test Example 10: control effect against rice sheath blight by water surface application (flowable formulation); conditions: flowable 1,000 ppm, 1 mL dripped in paddy water, inoculated after 1 week, 7 days after inoculation
[6] = system: rice blast fungus (Pyricularia grisea); assay type: in vivo; conditions: 5 g of granule on nursery box, paddy rice; inoculated after 3 weeks; 7 days after inoculation
[7] = system: rice blast fungus (Pyricularia grisea); assay type: in vivo; conditions: flowable 1,000 ppm, 1 mL dripped in paddy water, inoculated after 1 week, 7 days after inoculation
[8] = system: rice blast fungus (Pyricularia grisea); assay type: in vivo; conditions: flowable 5,000 ppm, 50 mL irrigation of nursery box, paddy rice; inoculated after 3 weeks; 7 days after inoculation

Structure (SMILES)	melting point [°C]	evaluation value of control effect (from control value, lesion height) [1]	evaluation value of control effect (from control value, lesion area percentage) [2]	evaluation value of control effect (from control value, number of lesions) [3]	evaluation value of control effect (from control value, lesion height) [4]	evaluation value of control effect (from control value, lesion height) [5]	evaluation value of control effect (from control value, number of lesions) [6]	evaluation value of control effect (from control value, number of lesions) [7]	evaluation value of control effect (from control value, number of lesions) [8]
Cc1nn(C)c(Cl)c1C(=O)N(C(=O)c1snc(Cl)c1Cl)c1cccc2c1C(C)OC2(C)C (centres unmarked) [25-115, 3,4-Dichloro-N-(5-chloro-1,3-dimethyl-pyrazole-4-carbonyl)-N-(1,3-dihydro-1,1,3-trimethylisobenzofuran-4-yl)-isothiazole-5-carboxamide]	165.5 to 170.3	5	4	4	5	5			
CC1CC(C)(C)c2cccc(N(C(=O)c3cn(C)nc3C(F)F)C(=O)c3snc(Cl)c3Cl)c21 (centres unmarked) [25-4, 3,4-Dichloro-N-{3-(difluoromethyl)-1-methyl-pyrazole-4-carbonyl)-N-(2,3-dihydro-1,1,3-trimethyl-1H-inden-4-yl)-isothiazole-5-carboxamide]	154.3 to 155.6	5	4		5	5			
O=C(c1nccnc1C(F)(F)F)N(c1ccccc1-c1ccc(F)c(F)c1)c1snc(Cl)c1Cl [13-55, N-(3,4-Dichloroisothiazol-5-yl)-N-(3′,4′-difluorobiphen-2-yl)-3-(trifluoromethyl)pyrazine-2-carboxamide]	136.1 to 139.2	5	5	4	5	5	5	5	5
CC(C)CC(C)c1ccccc1N(C(=O)c1cccnc1C(F)F)C(=O)c1snc(Cl)c1Cl (centres unmarked) [13-2, 3,4-Dichloro-N-{2-(difluoromethyl)pyridine-3-carbonyl}-N-{2-(1,3-dimethylbutyl)phenyl}isothiazole-5-carboxamide]	111 to 115.6	5	5	4	5	5	5	5	5
